pIC50: −log10 of the molar value. Read-outs that look alike come from different tables or passages of the source.
Key:
[1] = Stability assay in rat plasma; format: in vitro ADME; settings: 37° C.
Procedure: To each of several tubes sub-packaged with rat plasma, PBS solution was added in a volume equal to a quarter of plasma volume, and the resultant mixture was mixed well. […] At different time points (0, 10, 30, 60, 120, 240, 360, 720, 1440 min), 50 μL plasma sample was taken and added to 150 μL precooled methanol (containing the internal standard compound E8, with a structure of
[drawing 117] and a name of 1-(2-Biphenyl-4-yl)ethyl-carbonyl pyrrolidine, 1 nmol/sample), wherein three parallel samples were prepared for each time point. The samples were then vertically mixed well, and centrifuged at 4° C., 12000 g for 10 min. The supernatant was transferred to a sample vial. LC-MS/MS was used to measure the peak area at different time points, Analyst® version 1.4.1. software was used to analyze chromatographic peak, and the content of the target compound was calculated by virtue of the standard curve.

[2] = Stability assays at acidic and basic conditions; format: physicochemical
Procedure: The sample containing the compound to be tested was then incubated in a constant temperature shaker at 37° C. At different time points (0 min, 10 min, 30 min, 1 h, 2 h, 4 h, 6 h, 12 h, 24 h), 50 μL sample was taken and added to 150 μL precooled methanol (containing the internal standard E8, 1 nmol/sample), wherein three parallel samples were prepared for each time point. The samples were then vertically mixed well, and transferred to a sample vial. LC-MS/MS was used to measure the peak area at different time points, Analyst® version 1.4.1. software was used to analyze chromatographic peak, and the content of the target compound was calculated based on the standard curve.

[3] = Assay on drug metabolism in rat; format: in vivo, SD rats; settings: SD, plasma, iv, 30 mg/Kg via jugular vein
Excerpt: 50 SD rats (purchased from Shanghai SLAC Laboratory Animal Co., Ltd) were divided into 5 groups randomly, 10 rats per group. After anesthesia with ether, rat was fixed on the operating table on its back, and was shaved at the operative site of neck. After disinfection with 75% alcohol, the neck was cut about 1.5 cm longitudinally, muscle tissues and nervi vascularis surrounding trachea were separated by blunt dissection, and carotid artery was separated by blunt dissection. Ligation was performed at distal end, an artery clamp was used at proximal part, and the distance between them was about 1 cm. A small cut was made with a pair of ophthalmic scissors at proximal part close to the ligated site, and arterial duct was introduced from the small cut to the proximal part, the artery clamp was loosened, the arterial ostium was clamped with smooth forceps, whilst the arterial duct was delivered to heart ventricle. Upon the introduction of the arterial duct into heart ventricle, the blood vessel was ligated. By using the same intubation method for artery, intubation was applied to jugular veins. After intubation, a tubule filled with heparin sodium was drawn out from artery and vein, which passed through the skin under the ear of the rat and drawn out from the dorsal part skin of the neck of the rat, and the tubule was fixed well. The muscles and skin were sutured at the surgical site of the rat, and normal saline containing heparin sodium was injected from time to time via the tubule connecting the artery and the vein to prevent tubule obstruction due to blood coagulation. The rat was placed in a warm and clean cage provided with water and food, waiting for the rat to wake up naturally.
After the rat regained consciousness and acted normally, assay on metabolic stability of compounds was performed in the rat. All the agents to be injected (including compounds to be tested and control drug) were dissolved in a mixed solvent of PEG400:Tween 80:normal saline (at a volume ratio of 5:5:90), at a concentration of 5 mg/mL. The agent was injected slowly at a dose of 30 mg/Kg via the tubule drawn out from the jugular vein. After administration, the time was recorded, and blood was collected from the tubule drawn out from carotid artery at 2, 5, 10, 20, 30, 60, 240, 360, and 720 min, in an amount of 200 μL for each time. The whole blood was placed in commercially available heparin sodium blood-collecting tube (Jiangxi Jingzhi Medical Equipment Co., Ltd.), centrifuged at 1800 g for 15 min. To the supernatant plasma, 150 μL pre-cooled methanol stopping buffer (containing internal standard E8, 1 nmol/sample) was added, vertically mixed well, and then centrifuged at 4° C., 12000 g for 10 min. The supernatant was transferred to a sample vial, the target compound was detected by LC-MS/MS, and the content of the compound was calculated by virtue of standard curve.

hERG potassium channel = hERG potassium channel (Homo sapiens (Human), UniProt Q12809); assay: hERG potassium channel automated patch clamp in CHO-hERG cells
Procedure: CHO-hERG cells (purchased from ATCC) were incubated in a culture flask. When the cell density reached 60˜80%, the culture medium (Glutamax DMEM/F12 medium (Gibco, Shanghai) containing 10% fetal bovine serum) was removed. The cells were washed with 7 mL PBS once, and then digested by adding 3 mL Detachin cell dissociation buffer. After complete digestion, the resultant mixture was neutralized by adding 7 mL culture medium, and centrifuged. The supernatant was removed with a pipette, 5 mL culture medium was added to re-suspend the cells to ensure a cell density of 2˜5×10^6/mL.
Intracellular fluid and extracellular fluid were prepared as described in the following table.
A certain amount of compound was dissolved in […] at the following concentrations, to prepare the stock solution of compound. 2 μL stock solution of compound was added to 998 μL extracellular fluid, and was subjected to 5-fold serial dilution in extracellular fluid containing 0.2% DMSO to get the final concentrates to be tested.
Single cell giga-seal and formation of whole-cell mode were automatically performed by Sophion Qpatch HT fully automated cell patch clamp systems. After obtaining the whole-cell recording mode, the cell was clamped at −80 mV. The cell first underwent pre-voltage of −50 mV for 50 msec, then underwent depolarization stimulation at 20 mV for 5 sec, and then underwent repolarization at −50 mV for 5 sec, and then the voltage return to −80 mv. The cell underwent the stimulation at the voltage every 15 sec, and the data were recorded for 2 min, then extracellular fluid was administered, and then the data were recorded for 2 min. Then, the administration process begun. The concentration of a test compound started from the lowest concentration, each test concentration was administered for 2 min. […] At least three cells were tested for each concentration (n≥3). The experimental data was analyzed by XLFit software.

NAAA = NAAA inhibitor, literature value; cited from earlier work
[4] = tested on: inflammatory pain induced by carrageenan and neuropathic pain caused by sciatic nerve ligation; settings: cited from earlier work
[5] = target: N-acylethanolamide hydrolyzing acid amidase (NAAA) (Rattus norvegicus, UniProt Q5KTC7); assay: Endocannabinoid hydrolase activity: NAAA inhibition (17:1 FAE hydrolysis, LC-MS); format: biochemical
Procedure: The preparation method was as followed: a plasmid (pCDNA3.1/NAAA or pCDNA3.1/FAAH) carrying a whole NAAA/FAAH gene was constructed, wherein the plasmid carried Cytomegalovirus (CMV) promoter and Neomycin selectable gene; the plasmid was transformed into HEK-293 cell via lipid medium, stable cell lines expressing NAAA/FAAH at a high level were obtained by G418 screening and Western-blot method. HEK-293 recombinant cells were cultured and collected, washed with PBS for 2-3 times, and ultrasonically treated in 20 mM Tris-HCl containing 0.32 M sucrose, then repeatedly frozen and thawed twice, and then centrifuged at 4° C., 800 g for 15 min. The supernatant (i.e., the desired protein) was collected, the protein concentration was determined by BCA method, and the protein was diluted to a concentration of 1 mg/mL, and sub-packaged and stored in a refrigerator at −80° C. for further use.
The reaction was carried out at 37° C. for 10 min. 170 μL buffer (the buffer consisted of 50 mM disodium Hydrogen Phosphate, 0.1% Triton X-100, 3 mM DTT, 150 μL) containing enzymatic hydrolysis substrate (the substrate was a heptadecenoyl ethanolamine containing a double bond and 17 carbon atoms, abbreviated as 17:1 FAE) was further added, wherein the concentration of 17:1 FAE was 5 μM. The reaction was carried out at 37° C. for 30 min, and 200 μL methanol solution containing internal standard (the internal standard was margaric acid, at a concentration of 1 nmol) was then added to stop the reaction. LC-MS was used to determine the yield of the hydrolysate 17:1 FA (i.e., a heptadecenoic acid containing a double bond) of 17:1 FAE, then a graph was plotted with Graphpad Prism 5. Thereby, the IC50 of the test compound on endocannabinoid hydrolase was determined.

SNI neuropathic pain = assay: Neuropathic pain mouse model induced by spared nerve injury (SNI); format: in vivo, C57BL/6 mice; settings: SNI mice, 10 mg/kg intraperitoneal, 1 h and 4 h after administration (FIGS. 1 and 2)
Procedure: (§1) In the Experimental example, compounds to be evaluated or compounds to be tested or test compounds used are the Compounds 1-46 prepared in the Examples according to the invention. In the Experimental example, all the agents for injection, including compounds to be evaluated or compounds to be tested or test compounds, and positive control drug, were dissolved in a mixed solvent of PEG400:Tween 80:normal saline (at a volume ratio of 5:5:90), at a concentration of 5 mg/mL.
Neuropathic pain mouse model induced by spared nerve injury (SNI) is a common animal model for studying neuropathic pain medically. The invention uses the model to evaluate the therapeutic effects of the compounds on neuropathic pain, wherein the model can represent peripheral neuropathic pain including, but not limited to post-herpetic neuralgia, pain caused by diabetic perineuropathy, neurothlipsis and exudation caused by tumor, lumbar surgery failure syndrome, neuropathic pain caused by lumbar disc protrusion, postpartum neuralgia, trigeminal neuralgia, chemotherapy-induced multiple neuropathic pain, post-radiotherapy plexopathy, and radicular neuralgia.
C57BL/6 mice (purchased from Shanghai SLAC Laboratory Animal Co., Ltd) were anesthetized by intraperitoneal injection with pentobarbital sodium (40 mg/kg), and skin from knee joint to gluteal region was subjected to skin preparation and disinfection. After the mice were fixed, the knee joint part was cut about 1 cm longitudinally with bistoury, and muscle tissues were separated by blunt dissection to expose sciatic nerve. The tibial and common peroneal nerve branches of sciatic nerve stem were cut off carefully, and the cut was then stitched up. The mice was placed in a clean observation cage. In the sham-operation group, only sciatic nerve was exposed without cutting the tibial and common peroneal nerve branches. From the day before the experiment to 24 h after the operation, the plantar edges of the mice were stimulated everyday by […] (Ugo Basile Company (Italy), Product ID: 37450), and data was collected automatically to obtain the threshold value of mice to mechanical stimulation. […] The positive control drug gabapentin was administered at a dose of 100 mg/kg. All the agents to be injected were dissolved in a mixed solvent of PEG400:Tween 80:normal saline (at a volume ratio of 5:5:90), at a concentration of 5 mg/mL. By comparing the threshold values (the acting force of when the mouse retracting the paw) at different administration time in different administration groups, the compound was evaluated for its analgesic effect on neuropathic pain.

[6] = tested on: inflammatory abdominal pain caused by acetic acid; assay: Abdominal inflammatory pain caused by acetic acid; format: in vivo, Kunming mice; settings: mice, 10 mg/kg i.p. 1 h before acetic acid; indometacin 20 mg/kg (FIG. 4)
Procedure: as §1
Typical model for studying inflammation-induced visceral pain medically was used to evaluate the therapeutic effects of compounds on inflammatory visceral pain. The model can represent general visceral pain including, but not only limited to appendicitis, gastritis, pancreatitis, prostatitis, myocarditis, interstitial cystitis, pain caused by hepatic, gall or kidney stone, irritable bowel syndrome, and chronic pelvic pain syndrome.
Experimental Kunming mice (purchased by Xiamen University Laboratory Animal Center from Shanghai SLAC Laboratory Animal Co., Ltd) were in an experimental environment with free access to food and water for 1 week. The mice were fasted for 24 h before administration. The compound to be evaluated (10 mg/kg) was administered to the mice by intraperitoneal injection at 1 h before administration of acetic acid, wherein the positive control drug indometacin was administered at a dose of 20 mg/kg, and the blank control was normal saline. Acetic acid (50 μL, acetic acid dissolved in normal saline, at a concentration of 5%) was administered to the mice by intraperitoneal injection, and the mice were then placed in the observation cage. A video camera was used to record the behavior of the mice in the following 20 min. Pain-related behavior was analyzed statistically based on torsion times of the mice in said period.

[7] = tested on: headache caused by nitroglycerin; assay: Nitroglycerin-induced headache rat model; format: in vivo, Wistar rats; settings: rats, 10 mg/kg i.p. 1 h before nitroglycerin (FIG. 5)
Procedure: as §1
Nitroglycerin-induced headache rat model was a common model for studying inflammatory pain medically. The model was used in the invention to evaluate the therapeutic effects of the compounds on headache. The model can represent mixed pain including, but not only limited to: migraine, cluster headache, tension headache syndrome, prosopodynia, lumbodynia, shoulder pain, burning mouth syndrome, and complex regional pain syndrome.
Experimental Wistar rats with a body weight of about 250 g for each (purchased from Shanghai SLAC Laboratory Animal Co., Ltd) were in an experimental environment with free access to food and water for 1 week. The rats were fasted for 24 h before administration. The compound to be evaluated (10 mg/kg) was intraperitoneally injected to the rat at 1 h before the administration of nitroglycerin, wherein the positive control drug was indomethacin and the blank control was normal saline. Nitroglycerin (10 mg/kg, nitroglycerin dissolved in normal saline, at a concentration of 5%) was injected at epidermis of the rat neck, and the rats were then placed in the observation cage. A video camera was used to record the behavior of the rats in the following 60 min. Pain-related behavior was analyzed statistically based on the times that the rat scratched its head in said period.

[8] = PBS pH 5.0, 37° C., read-out: Half-life pH 5.0
[9] = PBS pH 7.4, 37° C., read-out: Half-life pH 7.4

Chain of N-acylethanolamide hydrolyzing acid amidase (NAAA) (Q5KTC7 34-130 limits assumed): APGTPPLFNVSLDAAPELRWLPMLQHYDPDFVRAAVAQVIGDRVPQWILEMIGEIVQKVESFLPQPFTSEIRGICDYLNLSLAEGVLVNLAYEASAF
Chain of N-acylethanolamide hydrolyzing acid amidase (NAAA) (Q5KTC7 131-362 limits assumed): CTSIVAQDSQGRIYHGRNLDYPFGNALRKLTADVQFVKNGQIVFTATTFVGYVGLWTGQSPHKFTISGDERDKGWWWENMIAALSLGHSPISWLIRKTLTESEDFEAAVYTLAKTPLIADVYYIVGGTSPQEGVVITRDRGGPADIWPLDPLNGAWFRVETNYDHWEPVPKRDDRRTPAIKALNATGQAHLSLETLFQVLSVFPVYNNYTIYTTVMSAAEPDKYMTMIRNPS
Chain of hERG potassium channel (Q12809 whole entry): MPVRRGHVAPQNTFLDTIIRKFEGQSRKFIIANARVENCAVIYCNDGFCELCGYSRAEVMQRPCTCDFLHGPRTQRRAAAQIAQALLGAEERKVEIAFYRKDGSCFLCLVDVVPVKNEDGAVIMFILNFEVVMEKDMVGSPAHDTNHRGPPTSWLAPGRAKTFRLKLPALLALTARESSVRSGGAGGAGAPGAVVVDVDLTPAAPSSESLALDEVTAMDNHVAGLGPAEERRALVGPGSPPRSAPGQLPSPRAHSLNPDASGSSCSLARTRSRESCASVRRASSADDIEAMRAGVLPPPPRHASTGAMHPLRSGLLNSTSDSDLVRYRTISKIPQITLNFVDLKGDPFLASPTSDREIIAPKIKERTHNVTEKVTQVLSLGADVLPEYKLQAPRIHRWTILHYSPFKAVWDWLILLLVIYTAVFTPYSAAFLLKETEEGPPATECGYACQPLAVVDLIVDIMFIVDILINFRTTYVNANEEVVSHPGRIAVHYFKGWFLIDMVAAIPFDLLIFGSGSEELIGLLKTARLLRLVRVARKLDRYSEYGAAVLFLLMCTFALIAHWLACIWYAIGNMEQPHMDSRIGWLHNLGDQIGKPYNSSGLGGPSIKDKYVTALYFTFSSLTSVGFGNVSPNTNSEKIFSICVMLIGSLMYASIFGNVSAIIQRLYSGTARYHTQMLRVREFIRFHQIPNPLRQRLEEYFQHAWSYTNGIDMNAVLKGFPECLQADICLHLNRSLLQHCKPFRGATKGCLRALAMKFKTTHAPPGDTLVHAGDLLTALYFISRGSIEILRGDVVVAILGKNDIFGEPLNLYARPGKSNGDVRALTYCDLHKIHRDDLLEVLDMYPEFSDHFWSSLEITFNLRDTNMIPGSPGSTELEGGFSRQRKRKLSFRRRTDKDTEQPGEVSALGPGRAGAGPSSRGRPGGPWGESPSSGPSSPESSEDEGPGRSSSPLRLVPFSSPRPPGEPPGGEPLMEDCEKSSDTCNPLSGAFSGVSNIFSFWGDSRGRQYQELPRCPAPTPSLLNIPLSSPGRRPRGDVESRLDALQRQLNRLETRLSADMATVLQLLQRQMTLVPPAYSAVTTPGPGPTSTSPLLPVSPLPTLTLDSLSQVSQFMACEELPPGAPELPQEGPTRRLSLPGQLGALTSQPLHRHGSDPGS

| Compound | half-life at 2 μM [1] | half-life at 1 μM [2, 8] | half-life at 1 μM [2, 9] | half-life [3] | pIC50 [5] | other results |
| --- | --- | --- | --- | --- | --- | --- |
| O=C(CCCCCc1cccc(F)c1)N1CCOC1=O [Compound 8, 3-Fluorophenylhexanoyl Oxazolidinone] | 2.75 h | > 24 h | > 24 h | 1.55 h |  |  |
| O=C(CCCCCC1CCCNC1)N1CCOC1=O (centres unmarked) [Compound 34, Piperidin-3-yl-hexanoyl Oxazolidinone] |  |  |  |  |  | pIC50 (hERG potassium channel): < 4.40 |
| O=C(CCCCCc1ccc(O)cc1)N1CCOC1=O [Compound 31, 4-Hydroxyphenylhexanoyl Oxazolidinone] | 2.2 h | > 24 h | > 24 h | 1.23 h |  |  |
| C[C@@H]1OC(=O)[C@@H]1NC(=O)OCCCCCc1ccccc1 [ARN077] |  |  |  |  |  | pIC50 (NAAA): 6.90; analgesic effects on allodynia compared with gabapentin ([4]; sciatic nerve ligation, ARN077 1%, 20 μL, epidermal, gabapentin 50 mg/kg oral): better analgesic effects on allodynia than the positive control agent gabapentin; effect on inflammatory and neuropathic pain ([4]; topical administration): significantly inhibit inflammatory pain induced by carrageenan and neuropathic pain caused by sciatic nerve ligation |
| Cc1ccc(CCCCCC(=O)N2CCOC2=O)cc1 [Compound 33, 4-Methylphenylhexanoyl Oxazolidinone] |  |  |  |  | 6.36 |  |
| O=C1OCCN1C(=O)C1CCC(Cc2ccccc2)CC1 (centres unmarked) [Compound 24, 4-Benzylcyclohexanoyl Oxazolidinone] |  |  |  |  |  | effect of inhibiting central neuropathic pain (SNI neuropathic pain): did not exhibit any effect of inhibiting central neuropathic pain; effect of inhibiting abdominal inflammatory pain [6]: did not exhibit any effect of inhibiting abdominal inflammatory pain; effect of inhibiting nitroglycerin-induced headache [7]: did not exhibit any effect of inhibiting headache in rats |
| CC(=O)C[C@@H]1COC(=O)N1C(=O)CCCCCc1cccc(C)c1 [Compound 11] | 4.45 h | > 24 h | > 24 h | 3.07 h |  |  |
| O=C1OCCN1C(=O)c1ccc(Oc2ccccc2)cc1 [Compound 41, 4-Phenoxybenzoyl Oxazolidinone] | 5.33 h | > 24 h | > 24 h | 2.92 h | 6.17 |  |
| N[C@H]1CC(=O)N(C(=O)CCCCCc2ccccc2)C1 [Compound 30] |  |  |  |  |  | effect of inhibiting central neuropathic pain (SNI neuropathic pain): did not exhibit any effect of inhibiting central neuropathic pain; effect of inhibiting abdominal inflammatory pain [6]: did not exhibit any effect of inhibiting abdominal inflammatory pain; effect of inhibiting nitroglycerin-induced headache [7]: did not exhibit any effect of inhibiting headache in rats |
| Cc1cccc(CCCCCC(=O)N2CCOC2=O)c1 [Compound 32, 3-Methylphenylhexanoyl Oxazolidinone] |  |  |  |  | 6.46 |  |

Source: patent publication US10174015B2, “Substituted heterocyclic derivative, preparation method and use thereof” (Xiamen University, priority 2014, dated 2019)
